From patent publication US20250092043A1, “Kinase Inhibitors and Degraders” (Incyte Corporation, priority 2023, published 2025)

Target: T1, JAK2 (Homo sapiens, UniProt O60674, V617F)
T1 construct: their effect on JAK2 protein degradation in SET2 cells; host or cells: SET2 cells (human essential thrombocythemia)
Assay: Western blot quantitation of JAK2 degradation in SET2 cells
Format: cell-based
Conditions: 0.5 μM compound (cells marked **), 8 hours treatment, western blot densitometry vs. DMSO vehicle
Experimental: Example E. Western Blot Analysis of JAK2 Dependent SET2 Cells Treated with Compounds of the Present Disclosure
SET2 cells (DSMZ, catalog number ACC 608) are isolated from a person with human essential thrombocythemia and carry the JAK2 V617F mutation.
SET2 cells were cultured in RPMI culture medium (Gibco, catalog number 11875085) supplemented with 1% penicillin-streptomycin-glutamine (Thermo Fisher Scientific, catalog number 10378016) and 20% fetal bovine serum (Gibco, catalog number 10438034). Cultured cells were maintained at 37° C., 5% CO2 in the incubator.
Approximately 1,000,000 cells/well were added in 6-well plate containing 1.5 ml culture media with specified concentrations of compounds of the present disclosure or DMSO control. Cells were treated with concentrations of 10 uM, 5 uM, 1 uM, and 0.5 uM. Proteasome inhibitor MG-132 (Cell signaling, catalog number 2194) was added at 20 uM to an additional 10 uM compound treatment. The treatment period was 8 hours. After 8 hours, cells were collected in 1.5 mL microcentrifuge tubes. Tubes were centrifuged at 1500 rpm for 5 min. Supernatant was aspirated and samples were washed with 1 mL of cold PBS. The samples were centrifuged again at 1500 rpm for 5 min, supernatant was aspirated. The sample pellets were lysed using 150 μL of 1× lysing buffer (Cell Signaling Technologies—catalog number 9803S) supplemented with 1× Halt™ Protease and Phosphatase Inhibitor Cocktail (Thermo Fisher Scientific—catalog number 78447). Using Pierce™ BCA Protein Assay Kit (Thermo Fisher Scientific—catalog number 23225), protein concentration of the samples were quantitated. After normalizing sample concentration to approximately 20 ug/well, samples were loaded onto 4-12% Tris-glycine gels. Gels were transferred to nitrocellulose membranes using iBlot 2 Dry Blotting System and iBlot™ 2 Transfer Stacks, nitrocellulose (Thermo Fisher Scientific—catalog number IB23001). Following transfer, membranes were blocked with StartingBlock (Thermo Fisher Scientific—catalog number 37543). After 1 hour of blocking membranes, they were probed for JAK2, pSTAT5, STAT5, CRBN, and GAPDH (Cell Signaling—catalog numbers 3230, 4322, 25656, 71810, and 5174 respectively).
Compounds of the present disclosure were screened at various concentrations to determine their effect on JAK2 protein degradation in SET2 cells, using methods as described above. DMSO was used as the vehicle control with no PROTAC® added. Co-administration of 20 μM of the proteasome inhibitor MG-132 with the PROTAC® compound at its highest concentration (i.e., 5 or 10 μM) tested was conducted to support the hypothesis that the degradation was driven by the ubiquitin-proteosome system (UPS). Degradation was evaluated by western blot densitometry quantitation using the FluorChem M instrument software to analyze the intensity of the JAK2 band signal at various concentrations of PROTAC® compound vs. the JAK2 band signal of the DMSO vehicle. It is noted that ˜82% of JAK2 exists as the V617F mutant, with the remaining 18% of JAK2 being WT. Therefore, if the V617F mutant JAK2 is selectively degraded over the WT, the maximum degradation is ˜80%. Degradation was graded as A: […]; B: ≥40% to <60% degradation; C: ≥20% to <40% degradation, D: <20% to ≥10%; E<10%. ** refers to degradation at 0.5 μM.

T1 sequence (O60674 whole entry V617F): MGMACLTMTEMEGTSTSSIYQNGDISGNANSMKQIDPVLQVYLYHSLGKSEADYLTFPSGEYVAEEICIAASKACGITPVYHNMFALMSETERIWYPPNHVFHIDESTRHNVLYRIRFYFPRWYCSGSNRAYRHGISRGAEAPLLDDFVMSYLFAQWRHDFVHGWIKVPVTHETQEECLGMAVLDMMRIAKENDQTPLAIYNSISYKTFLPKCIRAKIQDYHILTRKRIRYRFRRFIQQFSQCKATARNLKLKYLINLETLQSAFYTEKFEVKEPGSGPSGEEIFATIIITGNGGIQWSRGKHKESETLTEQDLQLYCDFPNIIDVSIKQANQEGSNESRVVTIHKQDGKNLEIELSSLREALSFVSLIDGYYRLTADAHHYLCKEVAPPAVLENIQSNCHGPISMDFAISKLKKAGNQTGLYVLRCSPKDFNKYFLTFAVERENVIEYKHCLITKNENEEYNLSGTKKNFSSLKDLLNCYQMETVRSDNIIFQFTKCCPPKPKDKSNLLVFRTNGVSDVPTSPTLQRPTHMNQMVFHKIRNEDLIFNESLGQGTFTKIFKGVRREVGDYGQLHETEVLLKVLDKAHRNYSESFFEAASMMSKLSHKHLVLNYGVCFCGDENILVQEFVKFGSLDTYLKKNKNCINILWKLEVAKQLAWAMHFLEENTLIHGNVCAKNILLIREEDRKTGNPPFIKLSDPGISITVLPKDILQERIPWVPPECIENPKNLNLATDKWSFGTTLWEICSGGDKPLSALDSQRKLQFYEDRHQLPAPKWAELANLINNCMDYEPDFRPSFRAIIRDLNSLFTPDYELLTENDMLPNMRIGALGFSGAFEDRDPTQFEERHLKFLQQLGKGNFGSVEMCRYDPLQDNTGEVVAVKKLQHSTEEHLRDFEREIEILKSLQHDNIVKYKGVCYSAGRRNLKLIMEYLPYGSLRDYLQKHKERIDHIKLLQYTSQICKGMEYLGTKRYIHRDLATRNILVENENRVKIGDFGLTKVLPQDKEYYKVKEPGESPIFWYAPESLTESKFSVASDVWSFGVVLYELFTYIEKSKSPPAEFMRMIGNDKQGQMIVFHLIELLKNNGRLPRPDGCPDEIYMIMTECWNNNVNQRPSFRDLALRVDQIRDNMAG

| Compound | JAK2 % Degradation in SET2 |
| --- | --- |
| COC(=O)N[C@@H]1CC[C@@H](n2c(=O)n(C)c3cnc4[nH]c(-c5ccc(C(=O)N6CCC(CN7CCN(c8ccc9c(c8)C(=O)N(C8CCC(=O)NC8=O)C9=O)CC7)CC6)c(F)c5)c(-c5ccc6c(cnn6C(C)C)c5)c4c32)C1 (stereo partly drawn) [Example 32, methyl ((1R,3R)-3-(7-(4-(4-((4-(2-(2,6-dioxopiperidin-3-yl)-1,3-dioxoisoindolin-5-yl)piperazin-1-yl)methyl)piperidine-1-carbonyl)-3-fluorophenyl)-8-(1-isopropyl-1H-indazol-5-yl)-3-methyl-2-oxo-3,6-dihydroimidazo[4,5-d]pyrrolo[2,3-b]pyridin-1(2H)-yl)cyclopentyl) carbamate] | B** (B: ≥40% to <60% degradation) |
| COC(=O)N[C@@H]1CC[C@@H](n2c(=O)n(C)c3cnc4[nH]c(-c5ccc(C(=O)N6CCC(CN7CCN(c8ccc9c(c8)C(=O)N(C8CCC(=O)NC8=O)C9=O)CC7)CC6)cc5)c(-c5ccc6c(cnn6C(C)C)c5)c4c32)C1 (stereo partly drawn) [Example 34, methyl ((1R,3R)-3-(7-(4-(4-((4-(2-(2,6-dioxopiperidin-3-yl)-1,3-dioxoisoindolin-5-yl)piperazin-1-yl)methyl)piperidine-1-carbonyl)phenyl)-8-(1-isopropyl-1H-indazol-5-yl)-3-methyl-2-oxo-3,6-dihydroimidazo[4,5-d]pyrrolo[2,3-b]pyridin-1(2H)-yl)cyclopentyl) carbamate] | A** (A: ≥600% degradation) |

Same assay, conditions: 10 μM compound, 8 hours treatment, western blot densitometry vs. DMSO vehicle

| Compound | JAK2 % Degradation in SET2 |
| --- | --- |
| COC(=O)N[C@@H]1CC[C@@H](n2c(=O)n(C)c3cnc4[nH]c(-c5ccc(C(=O)N6CCC(CN7CCN(c8cccc9c8C(=O)N(C8CCC(=O)NC8=O)C9=O)CC7)CC6)c(F)c5)c(-c5ccc6c(cnn6C(C)C)c5)c4c32)C1 (stereo partly drawn) [Example 1, Methyl((1R,3R)-3-(7-(4-(4-((4-(2-(2,6-dioxopiperidin-3-yl)-1,3-dioxoisoindolin-4-yl)piperazin-1-yl)methyl)piperidine-1-carbonyl)-3-fluorophenyl)-8-(1-isopropyl-1H-indazol-5-yl)-3-methyl-2-oxo-3,6-dihydroimidazo[4,5-d]pyrrolo[2,3-b]pyridin-1(2H)-yl)cyclopentyl)carbamate] | A (A: ≥600% degradation) |
| COC(=O)N[C@@H]1CC[C@@H](n2c(=O)n(C)c3cnc4[nH]c(-c5ccc(C(=O)NCCOCCOCC(=O)N[C@H](C(=O)N6C[C@H](O)C[C@H]6C(=O)NCc6ccc(-c7scnc7C)cc6)C(C)(C)C)c(F)c5)c(-c5ccc6c(cnn6C(C)C)c5)c4c32)C1 [Example 14, methyl ((1R,3R)-3-(7-(3-fluoro-4-((2-(2-(2-(((S)-1-((2S,4R)-4-hydroxy-2-((4-(4-methylthiazol-5-yl)benzyl)carbamoyl)pyrrolidin-1-yl)-3,3-dimethyl-1-oxobutan-2-yl)amino)-2-oxoethoxy)ethoxy)ethyl)carbamoyl)phenyl)-8-(1-isopropyl-1H-indazol-5-yl)-3-methyl-2-oxo-3,6-dihydroimidazo[4,5-d]pyrrolo[2,3-b]pyridin-1(2H)-yl)cyclopentyl) carbamate] | C (C: ≥20% to <40% degradation) |
| COC(=O)N[C@@H]1CC[C@@H](n2c(=O)n(C)c3cnc4[nH]c(-c5ccc(C(=O)NCCOCC(=O)Nc6ccc7c(c6)CN(C6CCC(=O)NC6=O)C7=O)c(F)c5)c(-c5ccc6c(cnn6C(C)C)c5)c4c32)C1 (stereo partly drawn) [Example 17, methyl ((1R,3R)-3-(7-(4-((2-(2-((2-(2,6-dioxopiperidin-3-yl)-1-oxoisoindolin-5-yl)amino)-2-oxoethoxy)ethyl)carbamoyl)-3-fluorophenyl)-8-(1-isopropyl-1H-indazol-5-yl)-3-methyl-2-oxo-3,6-dihydroimidazo[4,5-d]pyrrolo[2,3-b]pyridin-1(2H)-yl)cyclopentyl) carbamate] | E (E<10%) |
| COC(=O)N[C@@H]1CC[C@@H](n2c(=O)n(C)c3cnc4[nH]c(-c5ccc(C(=O)NCCOCC(=O)Nc6cccc7c6CN(C6CCC(=O)NC6=O)C7=O)c(F)c5)c(-c5ccc6c(cnn6C(C)C)c5)c4c32)C1 (stereo partly drawn) [Example 24, methyl ((1R,3R)-3-(7-(4-((2-(2-((2-(2,6-dioxopiperidin-3-yl)-1-oxoisoindolin-4-yl)amino)-2-oxoethoxy)ethyl)carbamoyl)-3-fluorophenyl)-8-(1-isopropyl-1H-indazol-5-yl)-3-methyl-2-oxo-3,6-dihydroimidazo[4,5-d]pyrrolo[2,3-b]pyridin-1(2H)-yl)cyclopentyl) carbamate] | C (C: ≥20% to <40% degradation) |
| COC(=O)N[C@@H]1CC[C@@H](n2c(=O)n(C)c3cnc4[nH]c(-c5ccc(C(=O)N(C)CCOCC(=O)Nc6ccc7c(c6)CN(C6CCC(=O)NC6=O)C7=O)c(F)c5)c(-c5ccc6c(cnn6C(C)C)c5)c4c32)C1 (stereo partly drawn) [Example 27, methyl ((1R,3R)-3-(7-(4-((2-(2-((2-(2,6-dioxopiperidin-3-yl)-1-oxoisoindolin-5-yl)amino)-2-oxoethoxy)ethyl)(methyl)carbamoyl)-3-fluorophenyl)-8-(1-isopropyl-1H-indazol-5-yl)-3-methyl-2-oxo-3,6-dihydroimidazo[4,5-d]pyrrolo[2,3-b]pyridin-1(2H)-yl)cyclopentyl) carbamate] | D (D: <20% to ≥10%) |
| COC(=O)N[C@@H]1CC[C@@H](n2c(=O)n(C)c3cnc4[nH]c(-c5ccc(C(=O)N6CCC(CN7CCN(c8cccc9c8C(=O)N(C8CCC(=O)NC8=O)C9=O)CC7)CC6)c(OC)c5)c(-c5ccc6c(cnn6C(C)C)c5)c4c32)C1 (stereo partly drawn) [Example 28, methyl ((1R,3R)-3-(7-(4-(4-((4-(2-(2,6-dioxopiperidin-3-yl)-1,3-dioxoisoindolin-4-yl)piperazin-1-yl)methyl)piperidine-1-carbonyl)-3-methoxyphenyl)-8-(1-isopropyl-1H-indazol-5-yl)-3-methyl-2-oxo-3,6-dihydroimidazo[4,5-d]pyrrolo[2,3-b]pyridin-1(2H)-yl)cyclopentyl) carbamate] | B (B: ≥40% to <60% degradation) |
| CCNC(=O)[C@H](Cc1ccc(F)cc1)NC(=O)[C@@H]1CCCN1C(=O)[C@@H](NC(=O)[C@H](C)NCCOCCNC(=O)c1ccc(-c2[nH]c3ncc4c(c3c2-c2ccc3c(cnn3C(C)C)c2)n([C@@H]2CC[C@@H](NC(=O)OC)C2)c(=O)n4C)cc1F)C1CCCCC1 [Example 31, methyl ((1R,3R)-3-(7-(4-((2-(2-(((S)-1-(((S)-1-cyclohexyl-2-((S)-2-(((S)-1-(ethylamino)-3-(4-fluorophenyl)-1-oxopropan-2-yl)carbamoyl)pyrrolidin-1-yl)-2-oxoethyl)amino)-1-oxopropan-2-yl)amino)ethoxy)ethyl)carbamoyl)-3-fluorophenyl)-8-(1-isopropyl-1H-indazol-5-yl)-3-methyl-2-oxo-3,6-dihydroimidazo[4,5-d]pyrrolo[2,3-b]pyridin-1(2H)-yl)cyclopentyl) carbamate] | C (C: ≥20% to <40% degradation) |
| COC(=O)N[C@@H]1CC[C@@H](n2c(=O)n(C)c3cnc4[nH]c(-c5ccc(C(=O)N6CCC(CN7CCN(c8cccc9c8C(=O)N(C8CCC(=O)NC8=O)C9=O)CC7)CC6)cc5)c(-c5ccc6c(cnn6C(C)C)c5)c4c32)C1 (stereo partly drawn) [Example 33, methyl ((1R,3R)-3-(7-(4-(4-((4-(2-(2,6-dioxopiperidin-3-yl)-1,3-dioxoisoindolin-4-yl)piperazin-1-yl)methyl)piperidine-1-carbonyl)phenyl)-8-(1-isopropyl-1H-indazol-5-yl)-3-methyl-2-oxo-3,6-dihydroimidazo[4,5-d]pyrrolo[2,3-b]pyridin-1(2H)-yl)cyclopentyl) carbamate] | A (A: ≥600% degradation) |
